{"source": "patent US9745357B2", "about": "“Peptides used for treating cancers and, in particular, chronic lymphoid leukaemia” (Centre National de la Recherche Scientifique, priority 2009, dated 2017)", "key": {"[1]": {"tested_on": "B lymphocytes from patients suffering from chronic lymphoid leukemia (CLL)", "details": "for IC50: read-out: IC50 (concentration of peptide causing the death of 50% of the cells), after 24 H", "procedure": "Peripheral blood B lymphocytes taken from patients suffering from CLL and then purified on a Ficoll cushion and placed in culture are incubated in the presence of […] of the peptides described for FIG. 2. The percentage cell survival after 4 hours (gray column) or 24 hours (white column) of culture corresponds to the percentage of cells labeled neither with annexin nor with propidium iodide, evaluated by flow cytometry.\nThe CLL B lymphocytes were obtained from peripheral blood of 18 different patients suffering from chronic lymphoid leukemia. […] The samples were taken in the Brest hospital center, in the hematology department. The blood samples were taken after informing the patients and obtaining their informed consent.\nThe lymphocytes, mononuclear cells, were isolated from the heparinized peripheral blood samples by Ficoll-Hypaque (LSM 1077 lymphocyte, euro-bio) centrifugation. The red blood cells were lyzed by incubation for 10 min in VersaLyse Lysing Solution (Beckman Coulter). The mononuclear cells are obtained after 2 washes in culture medium (RPMI1640, Gibco BRL).\n(§1) The cells were cultured in a culture medium composed either of RPMI 1640 (B lymphocytes) or of DMEM (COS7, HCT116, HGT1, 293, HeLa) containing 10% of FCS (fetal calf serum, 1% of penicillin-streptomycin and 1% of glutamine, Gibco BRL). The cells are distributed in a 24-well plate and cultured at 37° C. in a humid atmosphere under 5% CO2.\n(§2) 400 μl of cell suspension (1×10^6 cells/ml) per well were treated for 4 h or 24 h with various concentrations of peptides. The test for activity of the peptides in the presence of emetine (FIG. 6) was carried out by preincubating the cells with 100 μM of emetine for one hour before the addition of peptide.\n(§3) After the cells have been washed with PBS, they were analyzed using the Annexin V-FITC IP system according to the supplier's recommendations (Beckman Coulter).\nThe cells taken from patients suffering from chronic lymphoid leukemia were purified on a Ficoll cushion. […] The cells were placed in culture in RPMI medium in the presence of 10% FCS (fetal calf serum). The peptides were added directly to the culture medium. These peptides comprise the IRS sequence (the amino acid sequence of which is RYIRS) which is known to allow the penetration of peptides into B lymphocytes in culture (Dong et al., 2005). […] The cells which survive the treatment are those which are labeled neither with annexin nor with propidium iodide."}, "[2]": {"tested_on": "control T lymphocytes (patients suffering from hemochromatosis)", "assay": "Cell survival of control T lymphocytes, annexin/propidium iodide flow cytometry", "format": "cell-based, human", "procedure": "(§4) FIG. 7: Activity of the A1WT peptide on cells of lymphocytic, lymphoid, gastric, colonic or renal origin The cells are prepared and placed in culture (see Materials and Methods) and then incubated for 4 H with the A1WT or A1 YALA peptide. The percentage cell survival corresponds to the percentage of cells labeled neither with annexin nor with propidium iodide, evaluated by flow cytometry. The names of the pathological conditions from which the patients from whom the samples are taken are suffering are indicated under the figure. The control T (L.T.) and B (L.B.) lymphocytes are taken from patients suffering from a disease not related to a lymphocytic pathological condition (hemochromatosis).\nThe control B lymphocytes and T lymphocytes originate from peripheral blood samples from patients suffering from hemochromatosis, provided by the CTS transfusion center in Brest. The B and T lymphocytes were isolated using the Rosett-Sep kit (Stemcell Technologies) according to the supplier's recommendations.\nas §1, §2, §3"}, "[3]": {"tested_on": "acute myeloid leukemia (AML) cells", "format": "cell-based, human", "details": "4 h, 40 μM", "procedure": "as §4, §1\n400 μl of cell suspension (1×10^6 cells/ml) per well were treated for 4 h or 24 h with various concentrations of peptides. […]\nAfter the cells have been washed with PBS, they were analyzed using the Annexin V-FITC IP system according to the supplier's recommendations (Beckman Coulter). […]"}, "[4]": {"tested_on": "293 cells (human embryo kidney cells transformed with adenovirus 5)", "assay": "Cell survival of 293 cells, Syto 13/propidium iodide fluorescence microscopy", "format": "cell-based", "details": "one hour incubation, various concentrations; FIG. 10", "procedure": "(§5) The cells cultured in glass-bottomed multiwell plates are incubated for one hour with the A1WT or A1 YALA peptide at the concentrations indicated on the figure. The percentage cell survival is obtained by calculating the ratio between the cells stained with Syto 13 and those stained with propidium iodide (see Materials and Methods).\n(§6) The analyses were carried out on a Zeiss Observer Z1 epifluorescence microscope. The cells are cultured in a glass-bottomed multiwell plate, propidium iodide and Syto13 (Invitrogen) are added to the medium at a concentration of 1 mg/ml and 5 μM, respectively. The Syto 13 binds to the DNA in the nuclei of the cells which then emit a green fluorescence. When the membrane permeability is modified during the cell death process, the propidium iodide penetrates the cell and causes the appearance of a red fluorescence when it binds to the DNA of the cell nuclei. The ratio between the number of nuclei emitting a green fluorescence and the number of nuclei emitting a red fluorescence represents the fraction of live cells expressed as percentage cell survival in the figures."}, "[5]": {"tested_on": "Jok cells (cell line derived from B lymphocytes)", "assay": "Cell survival of Jok cells, annexin/propidium iodide flow cytometry", "format": "cell-based, human", "procedure": "The cells are treated as indicated for FIG. 7, with the CLL cells, control T lymphocytes and Jok lymphocytes, which are incubated with the A1 WT IRS peptide and derivatives thereof described in table 1. The Jok cells were incubated either with 20 μM (JOK 20) or with 40 μM (JOK 40) of each of the peptides. In the interests of simplifying the legend, the A1 WT IRS peptide is referred to as “WT”. Likewise, the derivatives thereof are referred to by the name of the mutations (A1 K3I IRS is referred to as “K3I”, for example).\nas §1, §2, §3\nThe peptides were tested on B lymphocytes from patients suffering from chronic lymphoid leukemia, control T lymphocytes, or Jok cells (cell line derived from B lymphocytes). The experiment was repeated three times for each type of cell tested."}, "[6]": {"tested_on": "control T lymphocytes (patients suffering from hemochromatosis)", "assay": "Cell survival of control T lymphocytes, annexin/propidium iodide flow cytometry", "format": "cell-based, human", "details": "40 μM, 4 hours; FIG. 9"}, "[7]": {"tested_on": "HeLa cells (cervical cancer)", "assay": "Cell survival of HeLa cells, Syto 13/propidium iodide fluorescence microscopy", "format": "cell-based", "details": "one hour incubation, various concentrations; FIG. 10", "procedure": "as §5, §6"}, "[8]": {"tested_on": "cells derived from a simian kidney cancer (COS7)", "format": "cell-based", "details": "4 h, 40 μM", "procedure": "as §4, §1, §2, §3"}, "[9]": {"tested_on": "HGT1 cell line derived from a gastric cancer", "format": "cell-based", "details": "4 h, 40 μM", "procedure": "as §4, §1, §2, §3"}, "[10]": {"tested_on": "cells derived from a human colon cancer (HCT116)", "format": "cell-based", "details": "4 h, 40 μM", "procedure": "as §4, §1, §2, §3"}, "[11]": {"details": "40 μM peptide, 4 hours of culture, cells not labeled with annexin or propidium iodide"}}, "note": "Read-outs that look alike come from different tables or passages of the source. No end group written: not given here."}
{"sequence": "RRKYGRDFLLRFRYIRS [A1 WT IRS, RRKYGRDFLLRFRYIRS]", "values": [{"measurement": "cell survival, peptide in the presence of emetine", "setting": "[1]; 40 μM peptide after 1 h preincubation with 100 μM emetine, 4 H (from 97%), FIG. 6", "value": 27, "unit": "%"}, {"measurement": "cell effect CLL 40 (survival)", "setting": "[1]; [11]", "value": "+ (+: survival <25%)"}, {"measurement": "change of the effect on survival over time", "setting": "[1]; 40 μM, 1 H, 2 H, 4 H and 24 H, FIG. 4", "value": "no longer active after 4 H of incubation"}, {"measurement": "effect of the peptide on cell mortality, in words (relative to A1 WT IRS)", "setting": "[1]; 40 μM, 4 hours, FIG. 9", "value": "high cell mortality"}, {"measurement": "cell survival rate compared with cells incubated without peptide", "setting": "[1]; 4 H of incubation with 20 μM of peptide, FIG. 8", "value": "less than 65%"}, {"measurement": "IC50", "setting": "[1]; batch of cells from a second patient", "value": 24, "unit": "µM"}, {"measurement": "IC50", "setting": "[1]; first patient, FIG. 5", "value": "~28", "unit": "µM"}, {"measurement": "cell effect LT 40 (survival)", "setting": "[2]; [11]", "value": "+ (+: survival <25%)"}, {"measurement": "survival rate", "setting": "[2]; after 4 H of incubation with 40 μM, FIG. 7", "value": 38, "unit": "%"}, {"measurement": "survival rate", "setting": "[3]", "value": 38, "unit": "%"}, {"measurement": "effect on cell survival", "setting": "[4]", "value": "dose-dependent effect"}, {"measurement": "cell effect Jok 20 (survival)", "setting": "[5]; 20 μM peptide, 4 hours of culture, cells not labeled with annexin or propidium iodide", "value": "+ (+: survival <25%)"}, {"measurement": "cell effect Jok 40 (survival)", "setting": "[5]; [11]", "value": "+ (+: survival <25%)"}, {"measurement": "effect of the peptide on cell mortality, in words (relative to A1 WT IRS)", "setting": "[5]; 40 μM, 4 hours, FIG. 9", "value": "high cell mortality"}, {"measurement": "effect of the peptide on cell mortality, in words (relative to A1 WT IRS)", "setting": "[6]", "value": "the survival rate is higher in the control T cells"}, {"measurement": "effect on cell survival", "setting": "[7]", "value": "high sensitivity"}, {"measurement": "cell survival", "setting": "[8]", "value": 90, "unit": "%"}, {"measurement": "cell survival", "setting": "[9]", "value": "more than 88%"}, {"measurement": "cell survival", "setting": "[10]", "value": 94, "unit": "%"}]}
